Results on three compounds are retold here after patent publication US20170291882A1, “Solid Forms of Mirabegron” (Apotex Inc., priority 2014, published 2017).

Data set [1] can be described thus: Hygroscopicity testing (desiccator with saturated ammonium sulphate solution, 25° C., 24 hours). It is filed as physicochemical. To be noted: 1 g, unstoppered vessel over saturated ammonium sulphate solution. On the procedure: The hygroscopicity testing was conducted by placing 1 g of form APO-I Mirabegron in an unstoppered weighing vessel in a desiccator containing a saturated ammonium sulphate solution. The desiccator was placed in an oven at 25° C. for 24 hours. After this time, the percentage increase in mass was 0.89%.

The nature of data set [2]: Solubility testing of forms of Mirabegron (suspension stirred at room temperature, supernatant dried to constant weight). It is filed as physicochemical. On the procedure:
Solubility testing was conducted by preparing a suspension of the subject form of Mirabegron in the indicated solvent and stirring the suspension for the indicated time period at room temperature. After this time, excess solid was removed by filtration and the volume of the supernatant was recorded. The supernatant was concentrated in vacuo and dried to constant weight to afford a solid. The solubility is shown as the weight of solid/volume of supernatant in mg/mL. The α-form and β-form of Mirabegron refer to the forms as characterized in CA 2 464 068 C.
Phosphate buffer was prepared by dissolving potassium dihydrogen phosphate (340 mg) and disodium hydrogen phosphate (353 mg) in deionized water (100 mL).

For data set [3] the following is noted: cited from earlier work; for hygroscopicity (in words): as disclosed in CA 2 464 068 C.

Usually solubility stands for how much of the substance goes into solution per volume. Higher therefore signals a readily soluble substance. Usually Solubility stands for the dissolved amount per volume that the medium holds. High values mean a readily soluble substance, low ones a poorly soluble substance.

Values after ≈ are worked out from the molar mass of the structure shown. Like-named read-outs stand apart in the source and are kept apart here.

For the compound `Nc1nc(CC(=O)Nc2ccc(CCNC[C@H](O)c3ccccc3)cc2)cs1` [Form APO-I, Mirabegron], in data set [1], the “percentage increase in mass” value was found to be 0.89%. The solubility at 2 h in data set [2] (0.1M HCl, simulated gastric fluid, thermodynamic from solid, 2 hours) is 15 mg/mL (≈ 37.8 mM). In addition, the Solubility in data set [2] (Distilled water, 2 hours, listed as APO-I) stood at 0.5 mg/mL (≈ 1.26 mM); in data set [2] (Ethanol (denatured), 0.5 hours, listed as APO-I) it was 62.8 mg/mL (≈ 158 mM); in data set [2] (Phosphate buffer (pH 6.8), 2 hours, listed as APO-I), 6.2 mg/mL (≈ 15.6 mM).

Consider `Nc1nc(CC(=O)Nc2ccc(CCNC[C@H](O)c3ccccc3)cc2)cs1` [Form α, (R)-2-(2-aminothiazol-4-yl)-4′-[2-[(2-hydroxy-2-phenylethyl)amino]ethyl]acetanilide], for which the “hygroscopicity (in words)” value in data set [3] (listed as α-form crystal) was “no hygroscopicity”. Further, the Solubility was determined as 13.0 mg/mL (≈ 32.8 mM) in data set [2] (0.1M HCl, 2 hours); 0.2 mg/mL (≈ 0.504 mM) in data set [2] (Distilled water, 2 hours, listed as α); 21.3 mg/mL (≈ 53.7 mM) in data set [2] (Ethanol (denatured), 0.5 hours, listed as α); 2.5 mg/mL (≈ 6.3 mM) in data set [2] (Phosphate buffer (pH 6.8), 2 hours, listed as α).

Turning to `Nc1nc(CC(=O)Nc2ccc(CCNC[C@H](O)c3ccccc3)cc2)cs1` [Form β, (R)-2-(2-aminothiazol-4-yl)-4′-[2-[(2-hydroxy-2-phenylethyl)amino]ethyl]acetanilide], the “hygroscopicity (in words)” value in data set [3] (listed as β-form crystal) is “relatively low hygroscopicity”. For the same compound, the “moisture held (hygroscopic)” value in data set [3] (reported in CA 2 464 068 C) is “up to 3%”. Moreover, the Solubility in data set [2] (Ethanol (denatured), 0.5 hours, listed as β) amounted to 27.2 mg/mL (≈ 68.6 mM).
